Like-named read-outs stand apart in the source and are kept apart here.
Assays:
[1] = target: T1, HDAC7 (Homo sapiens, UniProt Q8WUI4); assay: HDAC biochemical activity measurement (fluorescent substrate deacetylation);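 also: fluorogenic deacetylation assay using acetyl-lysine substrate at 20 µM, enzyme and compound incubated 30 min at 37 °C, then developer added, fluorescence read at 360/460 nm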; details: HDAC7; 37° C. 30 minutes
T1 sequence (Q8WUI4 1-952): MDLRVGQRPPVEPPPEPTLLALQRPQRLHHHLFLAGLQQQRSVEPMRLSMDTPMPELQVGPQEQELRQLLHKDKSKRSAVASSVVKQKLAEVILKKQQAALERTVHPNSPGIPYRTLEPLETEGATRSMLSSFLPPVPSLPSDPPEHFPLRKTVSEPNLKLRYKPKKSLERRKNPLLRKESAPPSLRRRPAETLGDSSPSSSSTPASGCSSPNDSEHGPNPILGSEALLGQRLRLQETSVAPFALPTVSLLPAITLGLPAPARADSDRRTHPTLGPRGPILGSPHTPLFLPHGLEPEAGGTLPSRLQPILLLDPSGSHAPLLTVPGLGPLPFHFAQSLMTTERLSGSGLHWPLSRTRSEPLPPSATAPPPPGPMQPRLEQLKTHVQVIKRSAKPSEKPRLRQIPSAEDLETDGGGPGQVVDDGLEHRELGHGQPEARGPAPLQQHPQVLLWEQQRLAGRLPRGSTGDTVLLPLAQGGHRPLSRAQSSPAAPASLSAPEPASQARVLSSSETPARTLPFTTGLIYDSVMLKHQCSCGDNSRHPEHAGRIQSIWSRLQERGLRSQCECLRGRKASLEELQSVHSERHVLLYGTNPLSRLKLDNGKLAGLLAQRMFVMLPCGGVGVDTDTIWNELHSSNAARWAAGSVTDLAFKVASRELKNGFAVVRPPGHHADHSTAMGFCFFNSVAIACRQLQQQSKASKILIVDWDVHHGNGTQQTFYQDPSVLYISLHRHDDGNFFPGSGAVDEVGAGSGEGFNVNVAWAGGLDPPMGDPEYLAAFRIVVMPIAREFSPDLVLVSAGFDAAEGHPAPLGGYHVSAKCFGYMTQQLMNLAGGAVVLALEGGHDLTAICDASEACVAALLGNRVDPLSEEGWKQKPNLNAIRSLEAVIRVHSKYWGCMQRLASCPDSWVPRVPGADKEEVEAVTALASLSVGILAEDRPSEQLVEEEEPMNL

[2] = target: HDAC3 (Homo sapiens, UniProt O15379); assay: as above;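 also: fluorogenic acetyl-lysine substrate (20 µM) deacetylated by HDAC3, then developer added for 15 min at room temperature, release of fluorophore read at excitation 360 nm, emission 460 nm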
Description: (§2) The chemical activity of the compound is determined according to the degree of deacetylation inhibition of the HDAC enzyme. This experiment measured the degree of deacetylation related to tumor proliferation and metastasis of HDAC1, HDAC2, HDAC3, HDAC8, HDAC11 five subtypes HDAC enzymes. After the substrate containing an acetylated lysine side chain and HDAC enzyme are labeled with a fluorescent label, the fluorescent substrate is de acetyl. The fluorescent labeled substrate is cleaved by the enzyme, and the fluorescent substance is released, which generates 460 nm emission light under the excitation of 360 nm light.
(§3) HDAC substrate was diluted with reaction buffer to 200M (reaction concentration of 20M), the HDAC enzyme was diluted to the appropriate concentration, then added different concentrations of the test compounds and acted at 37° C. 30 minutes, and then added the same volume of 2-times concentration substrate developing solution (developer), incubated at room temperature for 15 minutes.

[3] = target: HDAC1 (Homo sapiens, UniProt Q13547); assay: as above
[4] = target: T2, HDAC8 (Homo sapiens, UniProt Q9BY41); assay: as above; details: 37° C. 30 minutes
T2 sequence (Q9BY41 1-377): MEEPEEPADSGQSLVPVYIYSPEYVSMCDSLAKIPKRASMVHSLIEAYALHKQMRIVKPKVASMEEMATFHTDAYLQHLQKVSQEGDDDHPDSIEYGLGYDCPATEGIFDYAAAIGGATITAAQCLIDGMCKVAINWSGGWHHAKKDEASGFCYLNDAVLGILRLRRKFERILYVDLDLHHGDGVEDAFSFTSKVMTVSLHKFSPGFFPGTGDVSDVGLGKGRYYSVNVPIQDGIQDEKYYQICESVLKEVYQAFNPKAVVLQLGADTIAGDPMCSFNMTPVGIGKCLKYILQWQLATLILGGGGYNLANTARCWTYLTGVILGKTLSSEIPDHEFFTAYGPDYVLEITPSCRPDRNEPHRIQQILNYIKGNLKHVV

[5] = tested on: KBM5-T315I (human chronic myelogenous leukemia); assay: MTT cancer cell growth inhibition; format: cell-based; details: MTT, 72 hours incubation, KBM5-T315I cells, read-out: GI50 KBM5-T315I
Summary of the method: (§1)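 Seed 1500 cells/well, incubate overnight. Add compound, 10^−5 to 10^−10 M final, n=3; culture 72 h, 37° C., 5% CO2. Add MTT, 4 h. Discard supernatant, dissolve in DMSO. Read 570 nm; calculate viability and GI50.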

[6] = tested on: A549 (human lung cancer cells); assay: MTT cancer cell growth inhibition; format: cell-based; details: MTT
Summary of the method: as §1

[7] = tested on: MOLT-4 (human acute lymphoblastic leukemia cells); assay: MTT cancer cell growth inhibition; format: cell-based; details: MTT
Summary of the method: as §1

[8] = tested on: H1975 (non-small cell lung adenocarcinoma); assay: MTT cancer cell growth inhibition; format: cell-based; details: MTT, 72 hours incubation, H1975 cells, read-out: GI50 H1975
Summary of the method: as §1

[9] = tested on: MCF-7 (human breast cancer cells); assay: MTT cancer cell growth inhibition; format: cell-based
Summary of the method: as §1

[10] = target: HDAC2 (Homo sapiens, UniProt Q92769); assay: HDAC biochemical activity measurement (fluorescent substrate deacetylation);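 also: HDAC2 enzyme with an acetyl-lysine fluorescent substrate, then developer added, fluorescence read at excitation 360 nm and emission 460 nm, inhibition measured across several compound concentrations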; details: 37° C. 30 minutes
[11] = target: T3, HDAC11 (Homo sapiens, UniProt Q96DB2); assay: as above;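 also: HDAC11 enzyme acting on an acetyl-lysine fluorogenic substrate, then a developer frees the fluorophore, read at excitation 360 nm and emission 460 nm, IC50 over a compound dilution series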
T3 sequence (Q96DB2 1-347): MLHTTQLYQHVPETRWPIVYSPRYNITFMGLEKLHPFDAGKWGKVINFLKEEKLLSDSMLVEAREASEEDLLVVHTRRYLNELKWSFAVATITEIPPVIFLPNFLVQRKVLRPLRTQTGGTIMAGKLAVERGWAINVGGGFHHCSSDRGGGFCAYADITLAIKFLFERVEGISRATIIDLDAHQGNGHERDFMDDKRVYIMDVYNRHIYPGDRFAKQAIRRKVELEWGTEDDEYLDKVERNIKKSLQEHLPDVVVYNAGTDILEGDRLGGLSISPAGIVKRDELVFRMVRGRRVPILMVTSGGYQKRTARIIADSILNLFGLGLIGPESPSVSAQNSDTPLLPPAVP
Description: as §2, §3

[12] = read-out: IC50 HDAC3, HDAC3, 37° C. 30 minutes
[13] = HDAC1, 37° C. 30 minutes, read-out: IC50 HDAC1
[14] = read-out: IC50 HDAC11, HDAC11, 37° C. 30 minutes
[15] = Homo sapiens, A549, 72 h, A549 cells, 72 hours incubation, read-out: GI50 A54
[16] = Homo sapiens, MOLT-4, 72 h, MOLT-4 cells, 72 hours incubation, read-out: GI50 Mol
[17] = Homo sapiens, MCF7, 72 h, MCF-7 cells, 72 hours incubation, read-out: GI50 MCF
[18] = Homo sapiens, A549, 72 h, 72 hours incubation, read-out: GI50 A54
[19] = Homo sapiens, MOLT-4, 72 h, 72 hours incubation, read-out: GI50 Mol
[20] = Homo sapiens, MCF7, 72 h, 72 hours incubation, read-out: GI50 MCF
[21] = Table 3, column C, read-out: IC50 HDAC1, C (six-membered ring with substituents)
[22] = Table 2, read-out: IC50 HDAC1, a (compounds of the present invention)
[23] = Homo sapiens, A549, 72 h, 72 hours, present invention, read-out: GI50 A549, a
[24] = Homo sapiens, MOLT-4, 72 h, 72 hours, present invention, read-out: GI50 Molt-4, a
[25] = Homo sapiens, MCF7, 72 h, 72 hours, present invention, read-out: GI50 MCF7, a
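For IC50 HDAC1 in this document: fluorogenic acetyl-lysine substrate (20 µM) deacetylated by HDAC1, then developer releases fluorophore read at 360 nm excitation and 460 nm emission, inhibitor incubated 30 min at 37 °C.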
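For IC50 HDAC1, C (six-membered ring with substituents) in this document: fluorogenic acetyl-lysine substrate (20 µM) deacetylated by HDAC1, then developer releases fluorophore read at 360 nm excitation and 460 nm emission, inhibitor incubated 30 min at 37 °C.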
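For IC50 HDAC1, D (non-substituent) in this document: fluorogenic acetyl-lysine substrate (20 µM) deacetylated by HDAC1, then developer releases fluorophore read at 360 nm excitation and 460 nm emission, inhibitor incubated 30 min at 37 °C.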
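For IC50 HDAC1, a (compounds of the present invention) in this document: fluorogenic acetyl-lysine substrate (20 µM) deacetylated by HDAC1, then developer releases fluorophore read at 360 nm excitation and 460 nm emission, inhibitor incubated 30 min at 37 °C.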

Chain of HDAC3 (O15379 whole entry, species assumed): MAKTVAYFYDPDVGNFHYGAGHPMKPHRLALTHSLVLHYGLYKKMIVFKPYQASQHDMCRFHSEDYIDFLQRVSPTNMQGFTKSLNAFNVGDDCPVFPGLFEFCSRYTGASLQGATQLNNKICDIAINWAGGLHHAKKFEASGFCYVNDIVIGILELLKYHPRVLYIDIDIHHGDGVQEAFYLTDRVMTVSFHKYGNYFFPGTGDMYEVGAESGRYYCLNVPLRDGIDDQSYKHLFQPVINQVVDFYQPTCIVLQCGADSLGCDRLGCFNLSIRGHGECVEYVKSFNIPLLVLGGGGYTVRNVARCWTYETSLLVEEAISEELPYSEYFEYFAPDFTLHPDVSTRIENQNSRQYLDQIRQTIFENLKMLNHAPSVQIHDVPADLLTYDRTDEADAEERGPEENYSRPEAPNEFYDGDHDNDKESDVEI
Chain of HDAC3 (Q9Y618 395-489 partner limits assumed, species assumed): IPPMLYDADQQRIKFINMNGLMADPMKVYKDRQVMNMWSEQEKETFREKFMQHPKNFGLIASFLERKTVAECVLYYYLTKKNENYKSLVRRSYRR
Chain of HDAC2 (Q92769 whole entry, species assumed): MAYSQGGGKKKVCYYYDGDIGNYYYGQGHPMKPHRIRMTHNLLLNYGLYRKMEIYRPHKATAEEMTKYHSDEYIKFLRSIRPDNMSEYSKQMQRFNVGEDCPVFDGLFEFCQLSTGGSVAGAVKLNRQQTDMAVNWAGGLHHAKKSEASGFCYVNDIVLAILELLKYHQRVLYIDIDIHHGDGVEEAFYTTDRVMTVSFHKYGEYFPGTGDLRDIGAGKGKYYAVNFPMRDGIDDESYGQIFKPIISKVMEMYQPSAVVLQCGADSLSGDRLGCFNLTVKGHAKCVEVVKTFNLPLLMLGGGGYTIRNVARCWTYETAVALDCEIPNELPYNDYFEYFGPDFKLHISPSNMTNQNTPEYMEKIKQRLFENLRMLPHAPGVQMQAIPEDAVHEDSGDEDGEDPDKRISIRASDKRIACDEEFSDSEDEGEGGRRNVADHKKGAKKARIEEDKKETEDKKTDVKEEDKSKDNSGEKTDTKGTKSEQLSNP
Chain of HDAC1 (Q13547 whole entry, species assumed): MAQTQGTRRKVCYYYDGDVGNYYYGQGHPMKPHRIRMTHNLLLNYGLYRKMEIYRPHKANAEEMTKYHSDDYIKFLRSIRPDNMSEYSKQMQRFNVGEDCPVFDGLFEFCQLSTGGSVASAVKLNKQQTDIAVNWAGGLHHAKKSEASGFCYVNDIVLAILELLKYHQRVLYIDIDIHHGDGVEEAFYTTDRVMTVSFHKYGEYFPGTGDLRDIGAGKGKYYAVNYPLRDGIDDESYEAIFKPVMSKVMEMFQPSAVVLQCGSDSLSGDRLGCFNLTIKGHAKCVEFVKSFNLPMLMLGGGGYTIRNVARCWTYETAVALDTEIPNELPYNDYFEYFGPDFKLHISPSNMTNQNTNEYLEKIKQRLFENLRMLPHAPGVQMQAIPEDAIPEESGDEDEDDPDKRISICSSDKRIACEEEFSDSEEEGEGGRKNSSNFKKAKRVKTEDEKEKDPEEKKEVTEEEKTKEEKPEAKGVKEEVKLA

| SMILES | IC50 HDAC7 [1] | IC50 [2, 12] [nM] | IC50 [3, 13] [nM] | IC50 [4] [nM] | IC50 [10] [nM] | IC50 [11, 14] [nM] | IC50 [2] [nM] | GI50 ([5]; Homo sapiens, 72 h) [nM] | GI50 [6, 15] [nM] | GI50 [7, 16] [nM] | GI50 ([8]; Homo sapiens, NCI-H1975, 72 h) [nM] | GI50 [9, 17] [nM] | IC50 [11] [nM] | GI50 [6, 18] [nM] | GI50 [7, 19] [nM] | GI50 [9, 20] [nM] | further results |
| --- | --- | --- | --- | --- | --- | --- | --- | --- | --- | --- | --- | --- | --- | --- | --- | --- | --- |
| C/C=C1\NC(=O)c2cc(SC)cc(n2)CNC(=O)C[C@@H](/C=C/CCSC(C)=O)OC(=O)[C@H](C(C)C)NC1=O [Compound 224] | no activity | 563 | 184 | 752 | 335 | 279 | – | – | – | – | – | – | – | – | – | – | GI50 [5]: 63 nM; GI50 ([6]; A549 cells, 72 hours incubation, read-out: GI50 A54): 50 nM; GI50 ([7]; MOLT-4 cells, 72 hours incubation, read-out: GI50 Mol): 30 nM; GI50 [8]: 96 nM; GI50 ([9]; MCF-7 cells, 72 hours incubation, read-out: GI50 MCF): 40 nM |
| C/C=C1\NC(=O)c2cccc(n2)NC(=O)C[C@@H](/C=C/CCSC(C)=O)OC(=O)[C@H](C(C)C)NC1=O [Example 22] | no activity | – | 93 | 47 | 54 | – | 61 | 26 | – | – | 41 | – | 97 | 1030 | 2060 | 1110 | – |
| C/C=C1\NC(=O)c2nc(F)cc(n2)CNC(=O)C[C@@H](/C=C/CCSC(C)=O)OC(=O)[C@H](C(C)C)NC1=O [Compound 98] | no activity | 62 | 61 | 61 | 19 | 89 | – | – | – | – | – | – | – | – | – | – | GI50 [5]: 58 nM; GI50 ([6]; 72 hours incubation, read-out: GI50 A54): 600 nM; GI50 ([7]; 72 hours incubation, read-out: GI50 Mol): 20 nM; GI50 [8]: 81 nM; GI50 ([9]; 72 hours incubation, read-out: GI50 MCF): 30 nM |
| C/C=C1\NC(=O)c2nc(ccc2SC)CNC(=O)C[C@@H](/C=C/CCSC(=O)CCCCCCC)OC(=O)[C@H](C(C)C)NC1=O [Compound 147] | no activity | – | 61 | 28 | 41 | – | 51 | 26 | 30 | 80 | 26 | 40 | 86 | – | – | – | – |
| C/C=C1\NC(=O)c2cc(F)cc(n2)CNC(=O)C[C@@H](/C=C/CCSC=O)OC(=O)[C@H](C(C)C)NC1=O [Compound 52] | no activity | 38 | 45 | 53 | 62 | 107 | – | 67 | – | – | 61 | – | – | 50 | 30 | 60 | IC50 [3, 21]: 45 nM |
| C/C=C1\NC(=O)c2nc(ccc2SC)CNC(=O)C[C@@H](/C=C/CCS)OC(=O)[C@H](C)NC1=O [Compound 232] | no activity | – | 66 | 59 | 93 | – | 21 | 43 | 30 | 50 | 56 | 80 | 152 | – | – | – | – |
| C/C=C1\NC(=O)c2cccc(n2)CNC(=O)C[C@@H](/C=C/CCSC(=O)CCCCCCC)OC(=O)[C@@H](C)NC1=O [Compound 236] | no activity | 66 | 43 | 67 | 38 | 72 | – | 53 | 510 | 860 | 72 | 760 | – | – | – | – | IC50 [3, 22]: < 50 nM; GI50 [6, 23]: 510 nM; GI50 [7, 24]: 860 nM; GI50 [9, 25]: 760 nM |

Second part, led by results:

| IC50 HDAC7 [1] | IC50 [2, 12] [nM] | IC50 [3, 13] [nM] | IC50 [4] [nM] | IC50 [10] [nM] | IC50 [11, 14] [nM] | IC50 [2] [nM] | GI50 ([5]; Homo sapiens, 72 h) [nM] | GI50 [6, 15] [nM] | GI50 [7, 16] [nM] | GI50 ([8]; Homo sapiens, NCI-H1975, 72 h) [nM] | GI50 [9, 17] [nM] | IC50 [11] [nM] | GI50 [6, 18] [nM] | GI50 [7, 19] [nM] | GI50 [9, 20] [nM] | SMILES | further results |
| --- | --- | --- | --- | --- | --- | --- | --- | --- | --- | --- | --- | --- | --- | --- | --- | --- | --- |
| no activity | – | 43 | 49 | 25 | – | 39 | 41 | 40 | 40 | 11 | 70 | 93 | – | – | – | C/C=C1\NC(=O)c2cc(SC)cc(n2)CNC(=O)C[C@@H](/C=C/CCSC(C)=O)OC(=O)[C@H](CCCCN)NC1=O [Compound 193] | – |
| no activity | 42 | 51 | 28 | 36 | 94 | – | 34 | – | – | 34 | – | – | 50 | 20 | 30 | C/C=C1\NC(=O)c2cc(F)cc(n2)CNC(=O)C[C@@H](/C=C/CCSC(C)=O)OC(=O)[C@H](CCCCNC(=O)OCC2c3ccccc3-c3ccccc32)NC1=O [Compound 76] | IC50 [3, 21]: 51 nM |
| no activity | 43 | 94 | 57 | 59 | 103 | – | 12 | – | – | 62 | – | – | 100 | 20 | 400 | C/C=C1\NC(=O)c2cccc(n2)CNC(=O)C[C@@H](/C=C/CCSC(=O)CCCCCCC)OC(=O)[C@H](Cc2ccccc2)NC1=O [Compound 14] | IC50 [3, 22]: < 100 nM; IC50 ([3]; Table 3, read-out: IC50 HDAC1, D (non-substituent)): 94 nM; GI50 [6, 23]: 100 nM; GI50 [7, 24]: 20 nM; GI50 [9, 25]: 400 nM |
| no activity | 135 | 64 | 453 | 331 | 276 | – | 39 | – | – | 34 | – | – | 20 | 30 | 30 | C/C=C1\NC(=O)c2nc(ccc2F)CNC(=O)C[C@@H](/C=C/CCSC(C)=O)OC(=O)[C@H](CCCCN)NC1=O [Compound 72] | IC50 [3, 21]: 64 nM |

From patent US10065990B2, “Cyclic peptide compound, and preparation method, pharmaceutical composition and use thereof” (HANGZHOU GUANYU BIO-MEDICAL CO., LTD, priority 2013, dated 2018)
